Assay results: BindingDB's records for patent US20240139197 (The Wistar Institute of Anatomy and Biology, 2024)

Legend:
Assay in all cases: Biochemical Assay
[1] = target: Lysine-specific demethylase 5A (Homo sapiens, UniProt P29375)
[2] = target: Lysine-specific demethylase 5B (Homo sapiens, UniProt Q9UGL1)
[3] = target: T1, Lysine-specific demethylase 4C (Homo sapiens, UniProt Q9H3R0)
T1 sequence (Q9H3R0 whole entry): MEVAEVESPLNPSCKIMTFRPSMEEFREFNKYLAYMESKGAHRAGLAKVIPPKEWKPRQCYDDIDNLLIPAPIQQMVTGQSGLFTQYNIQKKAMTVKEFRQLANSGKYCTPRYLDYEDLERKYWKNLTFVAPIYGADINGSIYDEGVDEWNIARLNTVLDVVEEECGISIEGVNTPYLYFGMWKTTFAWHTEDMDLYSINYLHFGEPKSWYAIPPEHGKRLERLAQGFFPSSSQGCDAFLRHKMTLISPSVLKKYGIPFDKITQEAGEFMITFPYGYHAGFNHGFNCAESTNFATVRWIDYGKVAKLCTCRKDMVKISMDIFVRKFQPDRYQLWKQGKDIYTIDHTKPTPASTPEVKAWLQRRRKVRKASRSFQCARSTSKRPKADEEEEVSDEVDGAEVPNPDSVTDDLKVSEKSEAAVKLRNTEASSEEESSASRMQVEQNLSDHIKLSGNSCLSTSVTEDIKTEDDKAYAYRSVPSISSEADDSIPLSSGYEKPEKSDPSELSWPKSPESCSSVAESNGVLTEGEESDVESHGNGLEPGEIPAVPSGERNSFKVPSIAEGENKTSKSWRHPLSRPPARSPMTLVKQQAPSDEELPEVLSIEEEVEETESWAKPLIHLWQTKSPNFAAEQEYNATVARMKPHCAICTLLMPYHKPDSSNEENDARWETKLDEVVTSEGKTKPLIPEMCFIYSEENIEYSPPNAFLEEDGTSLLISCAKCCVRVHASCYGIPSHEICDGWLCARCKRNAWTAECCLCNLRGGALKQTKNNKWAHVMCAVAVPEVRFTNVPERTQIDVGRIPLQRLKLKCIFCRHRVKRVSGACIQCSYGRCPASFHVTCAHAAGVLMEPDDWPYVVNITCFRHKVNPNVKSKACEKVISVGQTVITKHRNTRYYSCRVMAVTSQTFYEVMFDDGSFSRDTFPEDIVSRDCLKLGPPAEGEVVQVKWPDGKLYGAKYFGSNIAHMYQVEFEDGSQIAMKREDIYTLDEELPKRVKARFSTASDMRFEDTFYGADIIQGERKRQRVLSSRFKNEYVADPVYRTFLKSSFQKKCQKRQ

Sequence of Lysine-specific demethylase 5A (P29375 whole entry): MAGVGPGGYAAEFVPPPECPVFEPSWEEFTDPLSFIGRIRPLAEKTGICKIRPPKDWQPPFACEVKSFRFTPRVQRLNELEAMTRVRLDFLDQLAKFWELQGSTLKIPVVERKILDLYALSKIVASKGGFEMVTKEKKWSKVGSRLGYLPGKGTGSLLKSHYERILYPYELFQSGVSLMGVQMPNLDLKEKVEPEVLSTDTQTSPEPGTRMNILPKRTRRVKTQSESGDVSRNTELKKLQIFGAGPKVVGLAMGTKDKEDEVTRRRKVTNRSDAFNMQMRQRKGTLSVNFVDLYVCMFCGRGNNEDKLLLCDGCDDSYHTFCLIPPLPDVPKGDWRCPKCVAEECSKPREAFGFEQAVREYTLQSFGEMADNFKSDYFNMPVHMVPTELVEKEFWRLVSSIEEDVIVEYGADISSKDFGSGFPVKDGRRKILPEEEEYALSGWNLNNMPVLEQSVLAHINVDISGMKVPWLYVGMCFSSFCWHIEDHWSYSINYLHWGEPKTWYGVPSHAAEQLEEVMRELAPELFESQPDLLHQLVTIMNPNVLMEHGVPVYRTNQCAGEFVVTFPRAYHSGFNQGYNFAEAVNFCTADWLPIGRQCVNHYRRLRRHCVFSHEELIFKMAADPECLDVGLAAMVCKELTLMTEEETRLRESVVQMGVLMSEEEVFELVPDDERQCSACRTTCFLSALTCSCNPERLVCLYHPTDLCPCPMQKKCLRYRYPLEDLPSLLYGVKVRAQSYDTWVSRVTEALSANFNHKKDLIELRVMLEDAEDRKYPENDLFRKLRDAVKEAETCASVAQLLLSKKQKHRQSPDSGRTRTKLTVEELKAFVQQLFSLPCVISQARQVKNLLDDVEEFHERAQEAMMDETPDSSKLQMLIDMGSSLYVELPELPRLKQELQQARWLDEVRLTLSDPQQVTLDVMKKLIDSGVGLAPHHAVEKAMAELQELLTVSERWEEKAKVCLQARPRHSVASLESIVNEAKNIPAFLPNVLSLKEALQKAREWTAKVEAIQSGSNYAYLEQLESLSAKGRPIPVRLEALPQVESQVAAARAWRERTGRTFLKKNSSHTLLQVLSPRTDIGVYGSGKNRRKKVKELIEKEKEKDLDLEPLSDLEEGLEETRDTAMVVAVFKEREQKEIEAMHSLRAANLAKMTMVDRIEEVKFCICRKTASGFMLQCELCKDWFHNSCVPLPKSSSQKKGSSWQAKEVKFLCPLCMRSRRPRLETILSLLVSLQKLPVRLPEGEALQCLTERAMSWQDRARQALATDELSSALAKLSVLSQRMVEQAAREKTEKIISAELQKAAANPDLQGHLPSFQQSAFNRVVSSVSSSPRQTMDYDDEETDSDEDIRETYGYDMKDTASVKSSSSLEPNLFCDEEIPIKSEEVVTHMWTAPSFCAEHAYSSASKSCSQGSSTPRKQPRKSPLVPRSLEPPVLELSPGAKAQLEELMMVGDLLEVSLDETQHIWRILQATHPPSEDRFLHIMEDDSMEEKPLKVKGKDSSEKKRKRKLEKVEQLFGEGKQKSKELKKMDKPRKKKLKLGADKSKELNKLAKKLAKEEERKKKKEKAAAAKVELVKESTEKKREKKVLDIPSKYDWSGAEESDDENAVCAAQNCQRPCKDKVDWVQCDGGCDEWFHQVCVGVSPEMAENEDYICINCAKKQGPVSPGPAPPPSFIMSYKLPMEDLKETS
Sequence of Lysine-specific demethylase 5B (Q9UGL1 whole entry): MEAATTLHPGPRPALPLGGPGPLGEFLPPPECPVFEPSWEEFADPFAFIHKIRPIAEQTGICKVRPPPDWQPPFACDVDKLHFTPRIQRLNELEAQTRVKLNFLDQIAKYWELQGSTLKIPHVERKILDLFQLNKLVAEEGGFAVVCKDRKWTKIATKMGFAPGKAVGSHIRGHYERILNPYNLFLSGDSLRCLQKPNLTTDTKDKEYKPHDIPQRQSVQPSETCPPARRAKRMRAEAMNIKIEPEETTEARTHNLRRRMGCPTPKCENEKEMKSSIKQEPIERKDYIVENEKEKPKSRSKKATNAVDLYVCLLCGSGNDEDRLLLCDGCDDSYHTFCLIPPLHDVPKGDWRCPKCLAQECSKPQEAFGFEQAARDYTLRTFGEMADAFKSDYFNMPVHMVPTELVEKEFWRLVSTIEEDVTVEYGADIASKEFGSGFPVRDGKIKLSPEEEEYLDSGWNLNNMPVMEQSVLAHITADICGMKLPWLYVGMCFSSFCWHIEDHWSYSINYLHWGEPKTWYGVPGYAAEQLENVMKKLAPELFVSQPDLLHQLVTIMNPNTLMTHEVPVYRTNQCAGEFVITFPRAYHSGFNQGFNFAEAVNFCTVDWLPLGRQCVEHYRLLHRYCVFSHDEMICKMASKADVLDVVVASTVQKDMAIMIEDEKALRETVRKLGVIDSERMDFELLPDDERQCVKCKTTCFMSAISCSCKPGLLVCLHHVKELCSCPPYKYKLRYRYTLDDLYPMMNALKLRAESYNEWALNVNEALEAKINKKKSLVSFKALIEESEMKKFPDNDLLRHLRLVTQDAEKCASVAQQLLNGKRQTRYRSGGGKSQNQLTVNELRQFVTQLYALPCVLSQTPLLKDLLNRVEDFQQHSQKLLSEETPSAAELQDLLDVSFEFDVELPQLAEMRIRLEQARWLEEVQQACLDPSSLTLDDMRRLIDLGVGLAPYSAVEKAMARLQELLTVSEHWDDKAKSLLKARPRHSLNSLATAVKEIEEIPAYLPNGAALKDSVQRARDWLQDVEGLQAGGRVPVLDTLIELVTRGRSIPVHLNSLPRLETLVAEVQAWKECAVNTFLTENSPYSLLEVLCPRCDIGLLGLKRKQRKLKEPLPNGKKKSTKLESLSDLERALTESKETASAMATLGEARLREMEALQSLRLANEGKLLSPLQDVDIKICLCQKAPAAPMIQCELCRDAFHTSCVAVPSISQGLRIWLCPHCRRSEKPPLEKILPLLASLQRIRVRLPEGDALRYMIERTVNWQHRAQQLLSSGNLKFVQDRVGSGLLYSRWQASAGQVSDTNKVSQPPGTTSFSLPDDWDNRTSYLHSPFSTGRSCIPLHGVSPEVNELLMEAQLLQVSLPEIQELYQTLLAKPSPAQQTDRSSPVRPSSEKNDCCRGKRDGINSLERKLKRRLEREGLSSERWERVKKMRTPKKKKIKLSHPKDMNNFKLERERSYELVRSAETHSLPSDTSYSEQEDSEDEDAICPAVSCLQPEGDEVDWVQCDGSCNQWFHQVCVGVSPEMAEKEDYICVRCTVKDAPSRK

SMILES	IC50 [1] [nM]	IC50 [2] [nM]	IC50 [3] [nM]
CC(C)c1c[nH]c2c(C#N)cnn2c1=O [US20240139197, Compound 7]	170		
Bc1cc(Cl)ccc1COc1ccnn1-c1cc(C(=O)O)ccn1 [US20240139197, Compound 21]	14	4	54
COc1cc(Cl)ccc1COc1ccnn1-c1cc(C(=O)O)ccn1 [US20240139197, Compound 34]		3	
CCOc1cc(Cl)ccc1COc1ccnn1-c1cc(C(=O)O)ccn1 [US20240139197, Compound 35]	18		
O=C(O)c1ccnc(-n2nccc2OCc2ccc(Cl)cc2OCC2CC2)c1 [US20240139197, Compound 36]	25	36	
